In US6770596B1, “Fused tricyclic compounds, process for their preparation, and herbicidal compositions containing them” (Ishihara Sangyo Kaisha Ltd., priority 2002, dated 2004):

Tests used:
Format in all cases: in vivo
[1] = test system: redroot pigweed (Amaranthus retroflexus, AMR); assay: Post-emerge test, redroot pigweed; conditions: 250 g ai/ha, 14 days after application, rating scale 0-100 (0 no damage, 100 complete death)
Method in brief: (§1)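 Post-emergence spray, 8-1000 g ai/ha in acetone at 187 l/ha with 0.25% v/v non-ionic surfactant, applied to 2-3 leaf plants. Pots of sandy loam mix, greenhouse. Visual 0-100 injury rating at 14 DAT.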

[2] = test system: wheat (Triticum aestivum); assay: Post-emerge test, crop damage wheat; conditions: post-emerge, 250 g ai/ha, 14 days after application, rating scale 0-100 (0 no damage, 100 complete death)
Method in brief: as §1

[3] = test system: cocklebur (Xanthium strumariunt, XAS); assay: Post-emerge test, cocklebur; conditions: 250 g ai/ha, 14 days after application, rating scale 0-100 (0 no damage, 100 complete death)
Method in brief: as §1

[4] = test system: velvetleaf (Abutilon theophrasti, ABT); assay: Post-emerge test, velvetleaf; conditions: 250 g ai/ha, 14 days after application, rating scale 0-100 (0 no damage, 100 complete death)
Method in brief: as §1

[5] = test system: sicklepod (Cassia obtusifolia, CAO); assay: Post-emerge test, sicklepod; conditions: 250 g ai/ha, 14 days after application, rating scale 0-100 (0 no damage, 100 complete death)
Method in brief: as §1

[6] = test system: green foxtail (Setaria viridis, SEV); assay: Post-emerge test, green foxtail; conditions: 250 g ai/ha, 14 days after application, rating scale 0-100 (0 no damage, 100 complete death)
Method in brief: as §1

[7] = test system: field corn (Zea mays L., var. Dekalb 535, CORN); assay: Pre-emerge test, crop damage field corn; conditions: pre-emerge, 250 g ai/ha, 14 days after application, rating scale 0-100 (0 no damage, 100 complete death)
Method in brief: (§2)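 Seeds planted 1 day pre-application in sandy loam soil mix; acetone solutions sprayed at 8 to 1000 g ai/ha (187 l/ha, flat fan nozzle, track sprayer). 14 d later, visual damage scored on a 0–100 scale.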

[8] = test system: soybean (Glycine max L., var. Pella 86, SOY); assay: Post-emerge test, crop damage soybean; conditions: post-emerge, 250 g ai/ha, 14 days after application, rating scale 0-100 (0 no damage, 100 complete death)
Method in brief: as §1

[9] = test system: johnsongrass (Sorghum halepense, SOH); assay: Post-emerge test, johnsongrass; conditions: 250 g ai/ha, 14 days after application, rating scale 0-100 (0 no damage, 100 complete death)
Method in brief: as §1

[10] = test system: field corn (Zea mays L., var. Dekalb 535, CORN); assay: Post-emerge test, crop damage field corn; conditions: post-emerge, 250 g ai/ha, 14 days after application, rating scale 0-100 (0 no damage, 100 complete death)
Method in brief: as §1

[11] = test system: common ragweed (Ambrosia artemisiifolia L., AML); assay: Post-emerge test, common ragweed; conditions: 250 g ai/ha, 14 days after application, rating scale 0-100 (0 no damage, 100 complete death)
Method in brief: as §1

[12] = test system: green foxtail (Setaria viridis, SEV); assay: Pre-emerge test, green foxtail; conditions: 250 g ai/ha, 14 days after application, rating scale 0-100 (0 no damage, 100 complete death)
Method in brief: (§3)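 Using a track sprayer with flat fan nozzle, acetone solutions were applied at 8–1000 g ai/ha to sandy loam pots sown one day before. Plant injury was rated visually 0–100 after 14 days.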

[13] = test system: large crabgrass (Digitaria sanguinalis, DIS); assay: Pre-emerge test, large crabgrass; conditions: 250 g ai/ha, 14 days after application, rating scale 0-100 (0 no damage, 100 complete death)
Method in brief: as §3

[14] = test system: johnsongrass (Sorghum halepense, SOH); assay: Pre-emerge test, johnsongrass; conditions: 250 g ai/ha, 14 days after application, rating scale 0-100 (0 no damage, 100 complete death)
Method in brief: as §3

[15] = test system: barnyardgrass (Echinachloa crus-galli, ECC); assay: Pre-emerge test, barnyardgrass; conditions: 250 g ai/ha, 14 days after application, rating scale 0-100 (0 no damage, 100 complete death)
Method in brief: as §3

[16] = test system: soybean (Glycine max L., var. Pella 86, SOY); assay: Pre-emerge test, crop damage soybean; conditions: pre-emerge, 250 g ai/ha, 14 days after application, rating scale 0-100 (0 no damage, 100 complete death)
Method in brief: as §2

[17] = test system: common ragweed (Ambrosia artemisiifolia L., AML); assay: Pre-emerge test, common ragweed; conditions: 250 g ai/ha, 14 days after application, rating scale 0-100 (0 no damage, 100 complete death)
Method in brief: as §3

[18] = test system: wheat (Triticum aestivum); assay: Pre-emerge test, crop damage wheat; conditions: pre-emerge, 250 g ai/ha, 14 days after application, rating scale 0-100 (0 no damage, 100 complete death)
Method in brief: as §2

[19] = test system: velvetleaf (Abutilon theophrasti, ABT); assay: Pre-emerge test, velvetleaf; conditions: 250 g ai/ha, 14 days after application, rating scale 0-100 (0 no damage, 100 complete death)
Method in brief: as §3

[20] = test system: redroot pigweed (Amaranthus retroflexus, AMR); assay: Pre-emerge test, redroot pigweed; conditions: 250 g ai/ha, 14 days after application, rating scale 0-100 (0 no damage, 100 complete death)
Method in brief: as §3

[21] = test system: ivyleaf morningglory (Ipomoea hederacea, IPH); assay: Pre-emerge test, ivyleaf morningglory; conditions: 250 g ai/ha, 14 days after application, rating scale 0-100 (0 no damage, 100 complete death)
Method in brief: as §3

[22] = test system: large crabgrass (Digitaria sanguinalis, DIS); assay: Post-emerge test, large crabgrass; conditions: 250 g ai/ha, 14 days after application, rating scale 0-100 (0 no damage, 100 complete death)
Method in brief: as §1

[23] = test system: lambsquarters (Chenopodium album, CHA); assay: Post-emerge test, lambsquarters; conditions: 250 g ai/ha, 14 days after application, rating scale 0-100 (0 no damage, 100 complete death)
Method in brief: as §1

[24] = test system: sicklepod (Cassia obtusifolia, CAO); assay: Pre-emerge test, sicklepod; conditions: 250 g ai/ha, 14 days after application, rating scale 0-100 (0 no damage, 100 complete death)
Method in brief: as §3

[25] = test system: cocklebur (Xanthium strumariunt, XAS); assay: Pre-emerge test, cocklebur; conditions: 250 g ai/ha, 14 days after application, rating scale 0-100 (0 no damage, 100 complete death)
Method in brief: as §3

[26] = test system: ivyleaf morningglory (Ipomoea hederacea, IPH); assay: Post-emerge test, ivyleaf morningglory; conditions: 250 g ai/ha, 14 days after application, rating scale 0-100 (0 no damage, 100 complete death)
Method in brief: as §1

[27] = test system: lambsquarters (Chenopodium album, CHA); assay: Pre-emerge test, lambsquarters; conditions: 250 g ai/ha, 14 days after application, rating scale 0-100 (0 no damage, 100 complete death)
Method in brief: as §3

[28] = test system: upland rice (Oryza sp., var.Tebonnet, RICE); assay: Pre-emerge test, crop damage upland rice; conditions: pre-emerge, 250 g ai/ha, 14 days after application, rating scale 0-100 (0 no damage, 100 complete death)
Method in brief: as §2

[29] = test system: barnyardgrass (Echinachloa crus-galli, ECC); assay: Post-emerge test, barnyardgrass; conditions: 250 g ai/ha, 14 days after application, rating scale 0-100 (0 no damage, 100 complete death)
Method in brief: as §1

[30] = test system: upland rice (Oryza sp., var.Tebonnet, RICE); assay: Post-emerge test, crop damage upland rice; conditions: post-emerge, 250 g ai/ha, 14 days after application, rating scale 0-100 (0 no damage, 100 complete death)
Method in brief: as §1

SMILES	Post-emerge Herbicidal Activity AMR (phytotoxicity rating) [1]	Post-emerge crop damage WHEAT (phytotoxicity rating) [2]	Post-emerge Herbicidal Activity XAS (phytotoxicity rating) [3]	Post-emerge Herbicidal Activity ABT (phytotoxicity rating) [4]	Post-emerge Herbicidal Activity CAO (phytotoxicity rating) [5]	Post-emerge Herbicidal Activity SEV (phytotoxicity rating) [6]	Pre-emerge crop damage CORN (phytotoxicity rating) [7]	Post-emerge crop damage SOY (phytotoxicity rating) [8]	Post-emerge Herbicidal Activity SOH (phytotoxicity rating) [9]	Post-emerge crop damage CORN (phytotoxicity rating) [10]	Post-emerge Herbicidal Activity AML (phytotoxicity rating) [11]	Pre-emerge Herbicidal Activity SEV (phytotoxicity rating) [12]	Pre-emerge Herbicidal Activity DIS (phytotoxicity rating) [13]	Pre-emerge Herbicidal Activity SOH (phytotoxicity rating) [14]	Pre-emerge Herbicidal Activity ECC (phytotoxicity rating) [15]	Pre-emerge crop damage SOY (phytotoxicity rating) [16]	Pre-emerge Herbicidal Activity AML (phytotoxicity rating) [17]	Pre-emerge crop damage WHEAT (phytotoxicity rating) [18]	Pre-emerge Herbicidal Activity ABT (phytotoxicity rating) [19]	Pre-emerge Herbicidal Activity AMR (phytotoxicity rating) [20]	also measured
O=C1Nc2c(-c3ncc(C(F)(F)F)cc3Cl)c(F)cc3c2N(C(=O)CO3)C1c1ccccc1 (stereo not drawn) [1-68]	100	0	60	80	0	0	5	10	0	10	40	100	100	99	98	5	65	30	99	100	Pre-emerge Herbicidal Activity IPH (phytotoxicity rating) [21]: 40; Post-emerge Herbicidal Activity DIS (phytotoxicity rating) [22]: 0; Post-emerge Herbicidal Activity CHA (phytotoxicity rating) [23]: 100; Pre-emerge Herbicidal Activity CAO (phytotoxicity rating) [24]: 40; Pre-emerge Herbicidal Activity XAS (phytotoxicity rating) [25]: 30; Post-emerge Herbicidal Activity IPH (phytotoxicity rating) [26]: 60; Pre-emerge Herbicidal Activity CHA (phytotoxicity rating) [27]: 100; Pre-emerge crop damage RICE (phytotoxicity rating) [28]: 0; Post-emerge Herbicidal Activity ECC (phytotoxicity rating) [29]: 0; Post-emerge crop damage RICE (phytotoxicity rating) [30]: 0
Cc1nn(-c2c(F)cc3c4c2NC(=O)CN4C(=O)CO3)c(=O)n1C(F)F [1-73]	30	0	40	65	0	50	100	60	0	0	50	100	100	100	100	60	80	90	100	100	Pre-emerge Herbicidal Activity IPH (phytotoxicity rating) [21]: 100; Post-emerge Herbicidal Activity DIS (phytotoxicity rating) [22]: 0; Post-emerge Herbicidal Activity CHA (phytotoxicity rating) [23]: 90; Pre-emerge Herbicidal Activity CAO (phytotoxicity rating) [24]: 90; Pre-emerge Herbicidal Activity XAS (phytotoxicity rating) [25]: 65; Post-emerge Herbicidal Activity IPH (phytotoxicity rating) [26]: 55; Pre-emerge Herbicidal Activity CHA (phytotoxicity rating) [27]: 100; Pre-emerge crop damage RICE (phytotoxicity rating) [28]: 100; Post-emerge Herbicidal Activity ECC (phytotoxicity rating) [29]: 0; Post-emerge crop damage RICE (phytotoxicity rating) [30]: 75
